Measurements: US20250034196A1, “ESTER DERIVATIVES OF N4-HYDROXYCYTIDINE AND USE THEREOF” (priority 2021, published 2025)

Columns and labels:
[1] = in vitro; assay type: in vitro ADME; details: plasma
Protocol: (§1) Preparation of Solutions: Stock solution (10 mM) of each of test compounds was prepared in DMSO. The stock solution for each compound was then diluted into 100 μM with acetonitrile.
Plasma Incubations: Plasma incubations were conducted in duplicate in 96-well plate at 37° C. Plasma was prewarmed in a total volume of 198 μL for 5 min at 37° C., then added 2 μL of 100 μM test compound into an incubation well containing plasma, pipette-mixed to achieve a homogenous suspension and immediately transferred 20 μL incubate as a 0 min sample to wells in a “Quenching” plate followed by adding 200 μL of acetonitrile with metolazone as internal standard (IS) and pipette-mixing. At 2, 5, 60, and 90 min, pipette-mixed the incubate and serially transfer samples of 20 μL incubate per time point to wells in a separate “Quenching” plate followed by adding 200 μL of acetonitrile with metolazone as IS and pipette-mixing.
(§2) Sample Analysis: The 96-well plate was centrifuged at 6000 g for 10 min. The supernatant was injected onto the LC-MS/MS system for analysis.

[2] = in vitro; assay type: in vitro ADME; details: microsomes, pH 7.4
Protocol: as §1
(§3) Microsome Incubations: Incubation mixtures were prepared in a total volume of 200 μL with final component concentrations as follows: 0.1M PBS (pH 7.4), NADPH (2 mM) and liver microsomes (0.2 mg/mL) as well as test compound (1 μM) or Molnupiravir (1 μM) as a positive control, wherein the NADPH was added after a 5-min preincubation of all other components at 37° C. Pipette-mixed to achieve a homogenous suspension and immediately transferred 20 μL incubate as a 0 min sample to wells in a “Quenching” plate followed by adding 200 μL of acetonitrile with metolazone as IS and pipette-mixing. At 2, 5, 10, and 45 min, pipette-mixed the incubate and serially transfer samples of 20 μL incubate per time point to wells in a separate “Quenching” plate followed by adding 200 μL of acetonitrile with metolazone as IS and pipette-mixing.
as §2

[3] = Microsome stability; assay type: in vitro ADME, Monkey; details: Monkey liver microsomes 0.2 mg/mL, NADPH, 1 μM
Protocol: as §1, §3, §2

[4] = in vivo; design: species or system Beagle Dogs; details: dog, po, 22 mg/kg; for AUC(0-inf): AUCINF of CH2107 (Molnupiravir); for AUC(0-t): AUClast of CH2107 (Molnupiravir); for Cmax: Cmax of CH2107 (Molnupiravir); for MRT inf: MRTINF of CH2107 (Molnupiravir); for half-life: T1/2 of CH2107 (Molnupiravir); for Tmax: Tmax of CH2107 (Molnupiravir)
Protocol: Example 174: Pharmacokinetic Study of EX-2 (CH2101), Molnupiravir (CH2017) and its Metabolite NHC (CH2018) Following a Single PO Administration of EX-2 (CH2101) or Molnupiravir (CH2017) in Male and Female Beagle Dogs
Both test compounds were prepared in 1% methyl cellulose (400 cps, SIGMA, SLCF9694) solution in purified water.
A total of 6 male+6 female Beagle Dogs, approximately 7-13 kg of bodyweight, were originally purchased from Marshall Biotechnology Co., Ltd. The animals were fasted overnight prior to dosing and food was re-provided after 4 hours post dosing.
The animals were restrained manually, and approximately 1 mL of blood at each time point was collected into pre-cooled EDTA-K2 tubes via cephalic or saphenous veins. Blood samples were centrifuged at 4° C. (4000 rpm. 5 min) to obtain plasma within 30 min after sample collection. All samples were stored at approximately −80° C. until analysis. The backup samples will be discarded after the in vivo experiment has been completed for two months unless requested.

[5] = system: SARS-CoV-2; details: 800 mg twice a day for 5 days, early infected patients; cited from earlier work
[6] = in vitro; details: African green monkey
[7] = both sexes, beagle, Plasma concentration of CH2107 (Molnupiravir)
[8] = female, beagle, Plasma concentration of CH2107 (Molnupiravir)
[9] = male, beagle, Plasma concentration of CH2107 (Molnupiravir)

CC(C)C(=O)OC[C@H]1O[C@@H](n2ccc(NO)nc2=O)[C@H](O)[C@@H]1O [Molnupiravir]
half-life at 1 µM ([1]; dog): 39.4 min | half-life at 1 µM ([1]; human): 66.2 min | half-life at 1 µM ([1]; monkey): 25.8 min | half-life at 1 µM ([1]; mouse): 25.8 min | half-life at 1 µM ([1]; rat): 3.3 min | half-life at 1 µM ([2]; dog): 3.9 min | half-life at 1 µM ([2]; human): 71.3 min | half-life at 1 µM ([2]; mouse): 5.6 min | half-life at 1 µM ([2]; rat): 13.8 min | T1/2 [3]: 4.7 min | AUC(0-inf) ([4]; both sexes, Beagle): 0.932 µg·h/mL | AUC(0-t) ([4]; both sexes, Beagle): 0.93 µg·h/mL | Cmax ([4]; both sexes, Beagle): 1.32 µg/mL | MRT inf ([4]; both sexes, Beagle): 38.9 min | half-life ([4]; both sexes, Beagle): 25.2 min | concentration at 0.083 hr [4, 7]: 0.496 µg/mL | concentration at 0.25 hr [4, 7]: 1.29 µg/mL | concentration at 0.5 hr [4, 7]: 1.01 µg/mL | concentration at 1 hr [4, 7]: 0.23 µg/mL | concentration at 2 hr [4, 7]: 0.0282 µg/mL | concentration at 4 hr [4, 7]: 0.00475 µg/mL | concentration at 6 hr [4, 7]: 0.00545 µg/mL | concentration at 8 hr [4, 7]: 0.00108 µg/mL | Tmax ([4]; both sexes, beagle): 18.8 min | AUCmale/female of CH2107 (Molnupiravir) ([4]; both, Beagle): 171% | AUCmale/female of EX-1/NHC/CH2018 ([4]; both, Beagle): 128% | Plasma concentration of EX-1/NHC/CH2018 ([4]; both, Beagle, 0.083 hr): 0.527 µg/mL | Plasma concentration of EX-1/NHC/CH2018 ([4]; both, Beagle, 0.25 hr): 5.653 µg/mL | Plasma concentration of EX-1/NHC/CH2018 ([4]; both, Beagle, 0.5 hr): 8.04 µg/mL | Plasma concentration of EX-1/NHC/CH2018 ([4]; both, Beagle, 1 hr): 8.648 µg/mL | Plasma concentration of EX-1/NHC/CH2018 ([4]; both, Beagle, 2 hr): 4.038 µg/mL | Plasma concentration of EX-1/NHC/CH2018 ([4]; both, Beagle, 4 hr): 0.97 µg/mL | Plasma concentration of EX-1/NHC/CH2018 ([4]; both, Beagle, 6 hr): 0.244 µg/mL | Plasma concentration of EX-1/NHC/CH2018 ([4]; both, beagle, 8 hr): 0.105 µg/mL | Plasma concentration of EX-1/NHC/CH2018 ([4]; both, beagle, 24 hr): 0.0184 µg/mL | AUCINF of CH2107 (Molnupiravir) ([4]; female, Beagle): 0.778 µg·h/mL | AUClast of CH2107 (Molnupiravir) ([4]; female, Beagle): 0.778 µg·h/mL | AUC(0-inf) ([4]; female, Beagle): 0.598 µg·h/mL | AUC(0-t) ([4]; female, Beagle): 0.596 µg·h/mL | Cmax ([4]; female, Beagle): 1.07 µg/mL | Plasma concentration of CH2107 (Molnupiravir) ([4]; female, beagle, 0.5 hr): 0.693 µg/mL | Plasma concentration of CH2107 (Molnupiravir) ([4]; female, beagle, 1 hr): 0.12 µg/mL | Plasma concentration of CH2107 (Molnupiravir) ([4]; female, beagle, 4 hr): 0.00806 µg/mL | Plasma concentration of CH2107 (Molnupiravir) ([4]; female, beagle, 6 hr): 0.00545 µg/mL | Plasma concentration of CH2107 (Molnupiravir) ([4]; female, beagle, 8 hr): 0.00108 µg/mL | concentration at 0.5 hr [4, 8]: 0.499 µg/mL | concentration at 1 hr [4, 8]: 0.207 µg/mL | concentration at 4 hr [4, 8]: 0.00806 µg/mL | concentration at 6 hr [4, 8]: 0.00545 µg/mL | concentration at 8 hr [4, 8]: 0.00108 µg/mL | Tmax ([4]; female, beagle): 30 min | AUCINF of CH2107 (Molnupiravir) ([4]; male, Beagle): 1.246 µg·h/mL | AUClast of CH2107 (Molnupiravir) ([4]; male, Beagle): 1.245 µg·h/mL | Cmax of CH2107 (Molnupiravir) ([4]; male, Beagle): 1.68 µg/mL | MRTINF of CH2107 (Molnupiravir) ([4]; male, Beagle): 34 min | T1/2 of CH2107 (Molnupiravir) ([4]; male, Beagle): 21.1 min | Plasma concentration of CH2107 (Molnupiravir) ([4]; male, Beagle, 0.25 hr): 1.68 µg/mL | AUC(0-inf) ([4]; male, Beagle): 1.1 µg·h/mL | AUC(0-t) ([4]; male, Beagle): 1.1 µg·h/mL | MRT inf ([4]; male, Beagle): 27.7 min | half-life ([4]; male, Beagle): 12.7 min | Plasma concentration of CH2107 (Molnupiravir) ([4]; male, beagle, 0.5 hr): 1.43 µg/mL | Plasma concentration of CH2107 (Molnupiravir) ([4]; male, beagle, 2 hr): 0.0111 µg/mL | Plasma concentration of CH2107 (Molnupiravir) ([4]; male, beagle, 4 hr): 0.00144 µg/mL | Cmax ([4]; male, beagle): 1.45 µg/mL | concentration at 0.25 hr [4, 9]: 1.45 µg/mL | concentration at 0.5 hr [4, 9]: 1.42 µg/mL | concentration at 2 hr [4, 9]: 0.00981 µg/mL | concentration at 4 hr [4, 9]: 0.00144 µg/mL | Tmax ([4]; male, beagle): 15 min | Reduction in patients progressing into hospitalizations [5]: 50% | CC50 at 4 days [6]: > 100 µM
